Measurements as given in US20080146570A1, “Chemical Compounds” (ASTRAZENECA AB, priority 2005, published 2008).
pIC50: −log10 of the molar value.

Target: T1, human recombinant, purified wild type His-B-Raf protein kinase (Homo sapiens, UniProt P15056)
T1 construct: His
Assay: B-Raf In Vitro ELISA Assay
Format: biochemical
Conditions: ELISA of MEK1 phosphorylation; 2.5 nM B-Raf, 10 μM ATP; 1 hour preincubation at 25° C.
Procedure: B-Raf In Vitro ELISA Assay
Activity of human recombinant, purified wild type His-B-Raf protein kinase was determined in vitro using an enzyme-linked immunosorbent assay (ELISA) assay format, which measures phosphorylation of the B-Raf substrate, human recombinant, purified His-derived (detagged) MEK1. The reaction utilized 2.5 nM B-Raf, 0.15 μM […] and 10 μM adenosine triphosphate (ATP) in 40 mM N-(2-hydroxyethyl)piperazine-N′-(2-ethanesulfonic acid hemisodium salt (HEPES), 5 mM 1,4-dithio-DL-threitol (DTT), 10 mM MgCl2, 1 mM ethylenediaminetetraacetic acid (EDTA) and 0.2 M NaCl (1×HEPES buffer), with or without compound at various concentrations, in a total reaction volume of 25 μl in 384 well plates. B-Raf and compound were preincubated in 1×HEPES buffer for 1 hour at 25° C. Reactions were initiated with addition of MEK1 and ATP in 1×HEPES buffer and incubated at 25° C. for 50 minutes and reactions stopped by addition of 10 μl 175 mM EDTA (final concentration 50 mM) in 1×HEPES buffer. 5 μl of the assay mix was then diluted 1:20 into 50 mM EDTA in 1×HEPES buffer, transferred to 384 well black high protein binding plates and incubated overnight at 4° C. […] Blue fluorescent product was detected at excitation 325 and emission 420 using a TECAN Ultra plate reader. Data was graphed and IC50s calculated using Excel Fit (Microsoft).

T1 sequence (P15056 whole entry): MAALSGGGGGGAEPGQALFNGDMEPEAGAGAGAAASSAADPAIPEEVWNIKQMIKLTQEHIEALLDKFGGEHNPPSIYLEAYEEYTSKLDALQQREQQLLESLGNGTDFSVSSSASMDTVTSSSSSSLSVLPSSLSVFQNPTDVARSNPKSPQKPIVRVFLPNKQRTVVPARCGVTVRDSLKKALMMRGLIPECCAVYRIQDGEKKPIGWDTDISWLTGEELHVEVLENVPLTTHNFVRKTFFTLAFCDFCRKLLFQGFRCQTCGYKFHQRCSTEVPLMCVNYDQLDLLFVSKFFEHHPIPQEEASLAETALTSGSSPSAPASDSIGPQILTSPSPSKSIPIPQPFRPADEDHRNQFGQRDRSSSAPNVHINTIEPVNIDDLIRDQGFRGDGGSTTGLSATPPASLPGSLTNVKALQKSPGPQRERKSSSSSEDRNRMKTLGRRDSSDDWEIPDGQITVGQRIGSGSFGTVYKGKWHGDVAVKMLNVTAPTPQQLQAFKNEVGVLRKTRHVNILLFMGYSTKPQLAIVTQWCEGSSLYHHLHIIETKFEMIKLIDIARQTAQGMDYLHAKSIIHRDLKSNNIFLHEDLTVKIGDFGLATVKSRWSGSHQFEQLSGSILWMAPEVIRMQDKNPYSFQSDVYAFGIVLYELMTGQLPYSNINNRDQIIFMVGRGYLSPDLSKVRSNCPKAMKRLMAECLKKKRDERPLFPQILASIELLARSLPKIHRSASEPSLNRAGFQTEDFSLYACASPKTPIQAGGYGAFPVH

pIC50 | Structure (SMILES)
6.82 | Cc1ccc(NC(=O)c2cccc(C(C)(C)C#N)c2)cc1Nc1ccnc(-c2cccnc2)n1 [Example 2, 3-(1-Cyano-1-methylethyl)-N-{4-methyl-3-[(2-pyridin-3-ylpyrimidin-4-yl)amino]phenyl}benzamide]
5.87 | Cc1ccc(NC(=O)c2cccc(C(C)(C)C#N)c2)cc1Nc1cc(NC2CC2)nc(-c2cccnc2)n1 [Example 4, 3-(Cyano-dimethyl-methyl)-N-[3-(6-cyclopropylamino-2-pyridin-3-yl-pyrimidin-4-ylamino)-4-methyl-phenyl]benzamide]
